Source: US20250326749A1, “COMPOUNDS, COMPOSITIONS, AND METHODS OF USING THEREOF” (Sionna Therapeutics Inc., priority 2022, published 2025)

Molecular target: T1, ΔF508-CFTR (Homo sapiens, UniProt P13569, DEL508-508)
T1 construct: expressed in transfected cells; host or cells: CFSMEo- (human CF submucosal gland epithelial cells, ΔF508/Q2X), transiently transfected by nucleofection
Assay: ΔF508-CFTR-HRP trafficking assay (cell surface expression of ΔF508-CFTR)
Type: cell-based
Conditions: CFSMEo- cells transiently transfected with ΔF508-CFTR-HRP; test agent 3 μM, 48 h; HRP chemiluminescence
Outline: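 Surface-expressed ΔF508-CFTR measured via extracellular HRP tag: cell-impermeable chemiluminescent substrate, 5 min, signal normalized to 0.3% DMSO vehicle.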

T1 sequence (P13569 with tags, fused parts or gaps DEL508-508): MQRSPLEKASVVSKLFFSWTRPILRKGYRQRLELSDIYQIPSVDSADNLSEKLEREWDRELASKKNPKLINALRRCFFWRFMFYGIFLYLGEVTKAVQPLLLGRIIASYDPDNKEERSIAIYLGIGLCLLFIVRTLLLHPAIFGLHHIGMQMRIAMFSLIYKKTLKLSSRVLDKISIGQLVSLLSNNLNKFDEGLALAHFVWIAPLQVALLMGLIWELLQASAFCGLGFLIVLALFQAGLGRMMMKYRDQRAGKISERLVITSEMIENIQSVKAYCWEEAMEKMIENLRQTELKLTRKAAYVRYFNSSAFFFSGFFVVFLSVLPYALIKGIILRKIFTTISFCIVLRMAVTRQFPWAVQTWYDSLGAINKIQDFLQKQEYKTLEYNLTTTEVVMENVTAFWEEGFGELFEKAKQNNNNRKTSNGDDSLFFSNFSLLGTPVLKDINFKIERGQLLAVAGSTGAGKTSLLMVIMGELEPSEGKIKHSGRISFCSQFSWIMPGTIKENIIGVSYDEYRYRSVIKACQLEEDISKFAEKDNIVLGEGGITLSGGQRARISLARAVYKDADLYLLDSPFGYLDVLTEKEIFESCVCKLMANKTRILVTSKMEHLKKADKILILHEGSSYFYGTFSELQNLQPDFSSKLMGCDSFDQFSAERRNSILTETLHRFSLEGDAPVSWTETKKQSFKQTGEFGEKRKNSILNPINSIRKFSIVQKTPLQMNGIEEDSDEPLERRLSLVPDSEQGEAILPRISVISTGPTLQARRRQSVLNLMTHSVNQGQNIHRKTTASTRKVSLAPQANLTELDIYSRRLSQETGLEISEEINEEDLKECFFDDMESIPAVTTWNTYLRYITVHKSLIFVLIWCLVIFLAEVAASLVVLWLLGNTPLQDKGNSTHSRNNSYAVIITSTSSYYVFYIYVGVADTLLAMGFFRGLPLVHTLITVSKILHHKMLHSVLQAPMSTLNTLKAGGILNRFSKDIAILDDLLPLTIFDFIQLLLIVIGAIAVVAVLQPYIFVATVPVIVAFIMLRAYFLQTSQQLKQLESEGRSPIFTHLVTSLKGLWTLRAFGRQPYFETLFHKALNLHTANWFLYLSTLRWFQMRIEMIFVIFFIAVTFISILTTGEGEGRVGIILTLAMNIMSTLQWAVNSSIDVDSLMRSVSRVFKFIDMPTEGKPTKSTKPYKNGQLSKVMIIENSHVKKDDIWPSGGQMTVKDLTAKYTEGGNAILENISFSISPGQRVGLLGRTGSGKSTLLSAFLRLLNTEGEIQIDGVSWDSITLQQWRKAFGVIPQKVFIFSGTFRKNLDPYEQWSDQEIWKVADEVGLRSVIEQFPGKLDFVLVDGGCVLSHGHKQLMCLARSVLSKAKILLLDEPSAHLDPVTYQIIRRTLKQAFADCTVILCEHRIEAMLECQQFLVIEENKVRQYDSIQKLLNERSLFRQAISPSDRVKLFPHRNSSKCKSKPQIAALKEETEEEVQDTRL

Row | SMILES | RLUs: ΔF508-CFTR-HRP trafficking data normalized to the vehicle treated control (0.3% DMSO)
1 | CC[C@H](Nc1cc(-n2nc(C(F)(F)F)c3c2[C@@H](Oc2ccc(C(=O)O)cc2)CCC3)ccn1)c1ccc2c(c1)OC(F)(F)O2 (single isomer, unassigned) [Example 88] | C (RLU 0.0 μM-3.5 μM)
2 | O=C(O)c1ccc(O[C@H]2CCCc3c(C(F)(F)F)nn(-c4ccnc(N[C@H](c5ccc6c(c5)OC(F)(F)O6)C5CC5)c4)c32)cc1 (single isomer, unassigned) [Example 90] | C (RLU 0.0 μM-3.5 μM)
3 | C[C@H](Nc1cccc(-n2nc(C(F)(F)F)c3c2[C@@H](Oc2ccc(C(=O)O)cc2)CCC3)n1)c1ccc2c(c1)OC(F)(F)O2 (single isomer, unassigned) [Example 91] | A (RLU 5.0 μM-10 μM)
4 | C[C@H](Nc1nc(-n2nc(C(F)(F)F)c3c2[C@@H](Oc2ccc(C(=O)O)cc2)CCC3)ccc1F)c1ccc2c(c1)OC(F)(F)O2 (single isomer, unassigned) [Example 92] | B (RLU 3.5 μM-5.0 μM)
5 | C[C@H](Nc1cc(-n2nc(C(F)(F)F)c3c2[C@@H](OC24CC(C(=O)O)(C2)C4)CCC3)ccc1F)c1ccc2c(c1)OC(F)(F)O2 (single isomer, unassigned) [Example 95 (P1)] | C (RLU 0.0 μM-3.5 μM)
6 | C[C@H](Oc1cc(-n2nc(C#N)c3c2[C@@H](Oc2ccc(C(=O)O)cc2)CCC3)ccc1F)c1ccc2c(c1)OC(F)(F)O2 (single isomer, unassigned) [Example 104] | B (RLU 3.5 μM-5.0 μM)
7 | C[C@H](Oc1cc(-n2nc(C(F)(F)F)c3c2[C@@H](Oc2ccc(-c4nc(=O)o[nH]4)cc2)CCC3)ccc1F)c1ccc2c(c1)OC(F)(F)O2 (single isomer, unassigned) [Example 111] | C (RLU 0.0 μM-3.5 μM)
8 | C[C@H](Oc1cc(-n2nc(C(F)(F)F)c3c2[C@@H](Oc2ccc(-c4nc(=O)o[nH]4)cc2)CCC3)ccn1)c1ccc2c(c1)OC(F)(F)O2 (single isomer, unassigned) [Example 112] | A (RLU 5.0 μM-10 μM)
9 | C[C@H](Oc1cc(-n2nc(C(F)(F)F)c3c2[C@H](NC(=O)C24CC(C(=O)O)(C2)C4)CCC3)ccn1)c1ccc2c(c1)OC(F)(F)O2 (single isomer, unassigned) [Example 113] | C (RLU 0.0 μM-3.5 μM)

Next, values leading:

Row | RLUs: ΔF508-CFTR-HRP trafficking data normalized to the vehicle treated control (0.3% DMSO) | SMILES
10 | C (RLU 0.0 μM-3.5 μM) | CC(C)[C@H](Nc1cc(-n2nc(C(F)(F)F)c3c2[C@@H](Oc2ccc(C(=O)O)cc2)CCC3)ccn1)c1ccc2c(c1)OC(F)(F)O2 (single isomer, unassigned) [Example 89]
11 | A (RLU 5.0 μM-10 μM) | C[C@H](Nc1cc(-n2nc(C(F)(F)F)c3c2[C@@H](Nc2ccc(C(=O)O)cc2)CCC3)ccn1)c1ccc2c(c1)OC(F)(F)O2 (single isomer, unassigned) [Example 93]
12 | A (RLU 5.0 μM-10 μM) | C[C@H](Oc1cc(-n2nc(C(F)(F)F)c3c2[C@@H](Nc2ccc(C(=O)O)cc2)CCC3)ccn1)c1ccc2c(c1)OC(F)(F)O2 (single isomer, unassigned) [Example 109]
13 | B (RLU 3.5 μM-5.0 μM) | C[C@H](Oc1cc(-n2nc(C(F)(F)F)c3c2[C@@H](Nc2ccc(C(=O)O)cc2)CCC3)ccn1)c1cc2c(cc1F)OC(F)(F)O2 (single isomer, unassigned) [Example 110]
14 | C (RLU 0.0 μM-3.5 μM) | C[C@H](Oc1cc(-n2nc(C(F)(F)F)c3c2[C@@H](NC(=O)c2ccc(C(=O)O)cc2)CCC3)ccn1)c1ccc2c(c1)OC(F)(F)O2 (single isomer, unassigned) [Example 114]
